A value given as a limit tells only on which side of the number the result lay.

Data on two molecules can be found in US20050020553A1, “Prevention of miscarriage with immunomodulating non-endogenous gestagen compounds” (Solvay Pharmaceuticals GmbH, priority 2001, published 2005).

Series [1] addresses T1, human progesterone receptor (Homo sapiens, UniProt P06401).
T1 sequence (P06401 1-933): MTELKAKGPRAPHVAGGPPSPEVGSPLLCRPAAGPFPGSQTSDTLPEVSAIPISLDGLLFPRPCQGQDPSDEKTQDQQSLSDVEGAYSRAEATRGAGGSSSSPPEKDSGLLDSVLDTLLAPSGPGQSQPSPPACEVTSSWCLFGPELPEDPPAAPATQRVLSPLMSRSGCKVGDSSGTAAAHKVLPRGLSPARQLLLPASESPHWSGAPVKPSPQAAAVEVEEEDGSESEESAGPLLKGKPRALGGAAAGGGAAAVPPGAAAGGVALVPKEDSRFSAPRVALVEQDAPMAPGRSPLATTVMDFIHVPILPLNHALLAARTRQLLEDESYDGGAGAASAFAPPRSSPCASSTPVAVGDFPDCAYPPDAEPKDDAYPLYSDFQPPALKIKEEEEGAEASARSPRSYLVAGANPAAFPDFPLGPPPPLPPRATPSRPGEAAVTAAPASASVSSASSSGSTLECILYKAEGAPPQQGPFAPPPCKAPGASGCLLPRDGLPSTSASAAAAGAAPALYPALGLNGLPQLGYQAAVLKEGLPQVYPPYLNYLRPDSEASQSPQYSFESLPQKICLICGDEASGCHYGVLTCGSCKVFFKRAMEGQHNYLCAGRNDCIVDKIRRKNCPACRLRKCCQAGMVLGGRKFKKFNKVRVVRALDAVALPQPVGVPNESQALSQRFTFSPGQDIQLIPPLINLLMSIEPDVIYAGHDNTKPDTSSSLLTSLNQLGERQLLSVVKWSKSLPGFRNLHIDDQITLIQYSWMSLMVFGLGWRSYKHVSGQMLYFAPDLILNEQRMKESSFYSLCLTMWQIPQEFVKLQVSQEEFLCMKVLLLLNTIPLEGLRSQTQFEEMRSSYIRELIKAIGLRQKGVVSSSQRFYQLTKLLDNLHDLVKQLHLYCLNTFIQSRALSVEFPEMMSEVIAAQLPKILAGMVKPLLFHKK
The conditions noted are these: cited from earlier work.

The test system of the next series is pregnant mice. The series can be described thus: Murine stress-induced (ultrasound) abortion model. Type of series: in vivo. The source says:
The results of the pharmacological test method given above can also be confirmed in an in vivo test model involving pregnant mice. […] Pregnant mice were exposed to ultrasound on day 5 of gestation. This stress increased the abortion rate of these mice from around 12% to 44%. Treatment with dydrogesterone reduced the abortion in a dose-related manner to as low as 5%.

The conditions of series [2]: in vivo; cited from earlier work.
For series [3], the system named is peripheral blood mononuclear cells (=PBMC). Description: Mitogen-induced stimulation of PBMC from women with unexplained habitual abortion, cytokine levels by ELISA. The conditions noted are these: for levels of IL-4 / levels of IL-6 / production of the Th1 cytokine IFN-gamma: PHA-stimulated PBMC from women with unexplained habitual abortion, 96 hours in culture, ELISA. Type of series: cell-based, human (women). An excerpt: The effects of dydrogesterone on Th1 and Th2 cytokine profiles produced by mitogen-stimulated peripheral blood mononuclear cells (=PBMC) were established. The effects of dydrogesterone on Th1 and Th2 cytokine production were investigated in peripheral blood lymphocytes from women with unexplained habitual abortion. The peripheral mononuclear cells were stimulated with mitogen (phytohaemagglutinin) in vitro, in the presence and absence of dydrogesterone. The levels of cytokines secreted were measured after 96 hours in culture. […] Several studies have pointed to a deviation of cytokine profiles in women when during pregnancy. Pregnancy is associated with a shift towards Th2 bias, evinced by changes in peripheral T cells, by cytokine production by peripheral lymphocytes and by cytokine changes at the maternal-fetal interface. Unexplained recurrent spontaneous abortion (URSA) seems to be associated with a stronger bias towards Th1 cytokines. Women who have earlier been gone through URSA may therefore be regarded as a pre-selected group of patients that will typically respond to an immunological stimulation by showing a Th1 dominated pattern of immune response. The pharmacological test was therefore performed with a suitable URSA group which comprised of women admitted with spontaneous abortion for evacuation, (i) who have had at least two previous unexplained miscarriages, (ii) who were currently undergoing at least a 3rd abortion and (iii) who had been fully investigated. The relationship between habitual abortion and cytokine production response in 54 women with normal pregnancy (and at least 3 previous normal pregnancies) and 23 women with a history of habitual abortion of unexplained aetiology (URSA group) has been investigated. Peripheral blood was obtained by venipuncture from the abortion group on the day of abortion. PBMC is separated by Ficoll-paque (Pharmacia Biotech, Sweden) density gradient centrifugation, suspended in RPMI medium (=“Roswell Park Memorial Institute”-medium; obtained from GIBCO/BRL, USA) containing 10% fetal calf serum, aliquoted into 96 well tissue culture plates at a density of 100.000 cells per well and then stimulated with the mitogen phytohemagglutinin (=PHA, Sigma Chemicals, USA) at a concentration of […] for a period of 96 hours, with autologous placental antigens or with trophoblast antigens. Progesterone, dydrogesterone (Duphaston®) and RU486 (=mifepristone) was added in different combinations as described below. Progesterone was tested at concentrations of […]. RU486 was tested at equivalent concentrations. Culture supernatants were harvested at 96 hours for determination of the levels of cytokines secreted by the PBMC into the supernatants. Cytokine levels were determined in the supernatants by enzyme-linked immunosorbent assay (=ELISA). Each sample was tested in the following manner: • PBMC+mitogen • PBMC+mitogen+progesterone • PBMC+mitogen+progesterone+RU486 • PBMC+mitogen+dydrogesterone • PBMC+mitogen+dydrogesterone+RU486 • PBMC+mitogen+Carrier • PBMC+mitogen+Carrier+RU486 Determination of cytokine levels by ELISA: Th1 cytokines TNF-α and IFN-γ, and Th2 cytokines IL-4, IL-6 and IL-10 were evaluated in these samples by ELISA using kits that were obtained from Immunotech SA, France. These consisted of “sandwich ELISA”. Briefly, the first step leads to the capture of the relevant cytokine by monoclonal anti-cytokine antibodies bound to the wells of microtiter plates. In the second step, a second biotinylated monoclonal is added together with streptavidin-enzyme (peroxidase or alkaline phosphatase) conjugate. The biotinylated antibody binds to the solid phase antibody-antigen complex, and in turn, binds the conjugate. After incubation the wells are washed and the binding of the streptavidin-enzyme via biotin is followed by the addition of a chromogenic substrate. The intensity of the coloration produced is proportional to the concentration of the cytokine in the sample. […]
Background: ELISA stands for enzyme-linked immunosorbent assay.

Series [4] has as its system Th1 cytokine production to trophoblast. The conditions noted are these: women with recurrent pregnancy loss; Choi et al., Human Reproduction 15/1 (2000); cited from earlier work.
Setting [5] is: ex-vivo, women with spontaneous abortion and habitual abortion.

`CC(=O)[C@H]1CC[C@H]2[C@@H]3C=CC4=CC(=O)CC[C@@]4(C)[C@@H]3CC[C@]12C` [dydrogesterone]: the “selectivity as progesterone receptor agonist” value in series [1] is recorded as “highly selective progesterone receptor agonist”. Moreover, the Th1/Th2 cytokine production entry in the series with pregnant mice (murine stress-induced abortion model) is listed as “shift from Th1 to Th2-cytokine production”. Besides, in the series on pregnant mice (pregnant mice exposed to ultrasound on day 5 of gestation), the “level of IL-4” value was “increased level”. The same molecule showed an abortion rate with pregnant mice (pregnant mice exposed to ultrasound on day 5 of gestation, stress raised rate from around 12% to 44%, dose-related) of at least 5%. In addition, in series [2], the “androgenic effects in the mother (hirsutism, voice changes, acne)” value is recorded as “no androgenic effects” and the “masculinizing effect on the female fetus” value is given as “no masculinizing effect”. Also, in series [3], the “levels of IL-4” value is on record as “marked increase”, the “levels of IL-6” value is reported as “marked increase” and the “production of the Th1 cytokine IFN-gamma” value is reported as “reduction”. Further, in series [3] (listed as Dydrogesterone), the “levels of IL-4” value was “increased”, the “levels of IL-6” value is “increased” and the “production of the Th1 cytokine IFN-gamma” value was “strongly suppressed”. Also, in series [3] (setting [5]), the Th1/Th2 bias result is reported as “shift from a Th1 towards a Th2 bias”, the activity of lymphocytes result is given as “reduced the activity of lymphocytes” and the “release of progesterone induced blocking factor (PIBF)” value is given as “increased release”.

As for `CC(=O)[C@H]1CC[C@H]2[C@@H]3CCC4=CC(=O)CC[C@]4(C)[C@H]3CC[C@]12C` [progesterone], the “in-vitro embryotoxic Th1 cytokine production to trophoblast” value in series [4] is listed as “inhibits”.
